Measured values: ChEMBL document CHEMBL4043153, “Lead selection of antiparasitic compounds from a focused library of benzenesulfonyl derivatives of heterocycles” (Bioorg Med Chem Lett, 2017)
The source made the active and inactive calls. The rule behind the calls is not given here.

How the values were obtained:
Type in all cases: functional
[1] = test system: Plasmodium falciparum; experiment: (§1) Antiparasitic activity against intraerythrocytic form of chloroquine/pyrimethamine-resistant Plasmodium falciparum K1 infected in human RBC preincubated for 48 hrs followed by [3H]-hypoxanthine addition measured after 24 hrs by liquid scintillation counting analysis
[2] = test system: Trypanosoma cruzi; experiment: Antiparasitic activity against Trypanosoma cruzi Tulahuen C4 intracellular amastigotes infected in rat L6 cells assessed as growth inhibition at 0.8 ug/ml after 96 hrs by CPRG/Nonidet reagent based photometric analysis relative to control; settings: Tulahuen C4, L6, 96 h, read-out: GI
[3] = test system: Trypanosoma brucei rhodesiense; experiment: Antiparasitic activity against Trypanosoma brucei rhodesiense STIB 900 trypomastigote bloodstream form assessed as growth inhibition at 0.8 ug/ml after 72 hrs by resazurin dye-based fluorometric analysis relative to control; settings: STIB 900, 72 h, read-out: GI
[4] = test system: Plasmodium falciparum; experiment: as §1, with “RBC assessed as growth inhibition at 4.8 ug/ml” for “RBC”, “analysis relative to control” for “analysis”; settings: read-out: GI
[5] = test system: Trypanosoma cruzi; experiment: Antiparasitic activity against Trypanosoma cruzi Tulahuen C4 intracellular amastigotes infected in rat L6 cells assessed as growth inhibition at 4.8 ug/ml after 96 hrs by CPRG/Nonidet reagent based photometric analysis relative to control; settings: Tulahuen C4, L6, 96 h, read-out: GI
[6] = test system: Leishmania donovani; experiment: Antiparasitic activity against Leishmania donovani MHOM-ET-67/L82 axenic amastigotes assessed as growth inhibition at 4.8 ug/ml after 72 hrs by resazurin dye-based fluorometric analysis relative to control; settings: MHOM-ET-67/L82, 72 h, read-out: GI
[7] = test system: Trypanosoma brucei rhodesiense; experiment: Antiparasitic activity against Trypanosoma brucei rhodesiense STIB 900 trypomastigote bloodstream form assessed as growth inhibition at 4.8 ug/ml after 72 hrs by resazurin dye-based fluorometric analysis relative to control; settings: STIB 900, 72 h, read-out: GI
[8] = test system: Plasmodium falciparum; experiment: as §1, with “RBC assessed as growth inhibition at 0.8 ug/ml” for “RBC”, “analysis relative to control” for “analysis”; settings: read-out: GI
[9] = test system: Leishmania donovani; experiment: Antiparasitic activity against Leishmania donovani MHOM-ET-67/L82 axenic amastigotes assessed as growth inhibition at 0.8 ug/ml after 72 hrs by resazurin dye-based fluorometric analysis relative to control; settings: MHOM-ET-67/L82, 72 h, read-out: GI

Row | SMILES | Activity [1] | inhibition of growth at 0.8 µg/mL [2] [%] | inhibition of growth at 0.8 µg/mL [3] [%] | inhibition of growth at 4.8 µg/mL [4] [%] | inhibition of growth at 4.8 µg/mL [5] [%] | inhibition of growth at 4.8 µg/mL [6] [%] | inhibition of growth at 4.8 µg/mL [7] [%] | inhibition of growth at 0.8 µg/mL [8] [%] | inhibition of growth at 0.8 µg/mL [9] [%]
1 | O=S(=O)(c1ccccc1)n1ccc2ccccc21 | Active |  |  |  |  |  |  |  | 
2 | O=S(=O)(c1ccc(C(F)(F)F)cc1)n1ccc2ccccc21 |  | 0 | 1.4 | 53.2 | 0 | 52.8 | 0 | 4.3 | 15.9
3 | CC(C)(C)c1ccc(S(=O)(=O)N2CCc3ccccc32)cc1 |  | 5.2 | 1.9 | 99.1 | 54.1 | 100 | 5.8 | 29.5 | 49.4
4 | CC(C)(C)c1ccc(S(=O)(=O)N2CCCc3ccccc32)cc1 |  | 0 | 6.7 | 91.6 | 55.6 | 99.1 | 5.5 | 23.5 | 49.8
5 | CC(=O)c1ccc(S(=O)(=O)n2nnc3ccccc32)cc1 |  | 0 | 2.8 | 5.6 | 6.1 | 41.6 | 4.9 | 0 | 17.3
6 | CC(C)(C)c1ccc(S(=O)(=O)n2nnc3ccccc32)cc1 |  | 8.5 | 8.8 | 0 | 7.4 | 42.8 | 0 | 0 | 13.3
7 | O=S(=O)(c1ccc(C(F)(F)F)cc1)N1CCc2ccccc21 |  | 3.4 | 2.2 | 59.8 | 10.8 | 68.8 | 0 | 0 | 12.6
8 | CC(C)(C)c1ccc(S(=O)(=O)N2CCc3ccccc3C2)cc1 |  | 0 | 10.8 | 86 | 26.7 | 100 | 8.7 | 11.6 | 31.6
9 | CC1CCc2ccccc2N1S(=O)(=O)c1ccccc1[N+](=O)[O-] (stereo unspecified) |  | 7.6 | 0.4 | 67.5 | 43.7 | 66.3 | 2.7 | 8.8 | 22.4
10 | CC(=O)Nc1ccc(S(=O)(=O)N2c3ccccc3CC2C)cc1 (stereo unspecified) |  | 0 | 0 | 15.6 | 46.7 | 14.7 | 1.7 | 4.2 | 6.4
11 | O=S(=O)(c1ccc(F)cc1)N1CCc2ccccc21 |  | 0 | 12.6 | 28.2 | 0.2 | 62.7 | 19.2 | 1.5 | 11
